ChEMBL document CHEMBL1201862, “PubChem BioAssay data set” (2004)
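In this assay, cells in 96-well plates receive the compound at five concentrations for 48 hours. Endpoints are linearly interpolated between the surrounding concentrations. The concentration for 50% growth inhibition is given as GI50.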 The source made the active and inactive calls. No stated cut-off is given here; in the data, active = GI50 up to about 1.1 µM and inactive = higher.

How the values were obtained:
Experiment in all cases: DTP human tumour cell line panel, 48 h
[1] = tested on: UO-31
[2] = tested on: SK-MEL-5
[3] = tested on: A549
[4] = tested on: NCI-H23
[5] = tested on: NCI-H226
[6] = tested on: CCRF-CEM
[7] = tested on: SW-620
[8] = tested on: U-251
[9] = tested on: IGROV-1
[10] = tested on: SF-295
[11] = tested on: TK-10
[12] = tested on: Malme-3M
[13] = tested on: HCC 2998
[14] = tested on: HT-29
[15] = tested on: MOLT-4
[16] = tested on: Hs-578T
[17] = tested on: A498
[18] = tested on: NCI-H460
[19] = tested on: SR

Measured: GI50

CN[C@@H](C)[C@H](NC)c1ccccc1
inactive: [1] > 100 µM | [2] > 100 µM | [3] > 100 µM | [4] > 100 µM | [5] > 100 µM | [6] > 100 µM | [7] > 100 µM | [8] > 100 µM | [9] > 100 µM | [10] > 100 µM | [11] > 100 µM | [12] > 100 µM | [13] > 100 µM | [14] > 100 µM | [15] > 100 µM

COC1C(N(C)C)=C(c2ccccc2)C(=O)N2CCc3ccccc3C12 (stereo unspecified)
inactive: [1] > 100 µM | [2] > 100 µM | [3] > 100 µM | [4] > 100 µM | [5] > 100 µM | [16] > 100 µM | [6] > 100 µM | [17] > 100 µM | [7] > 100 µM | [8] > 100 µM | [9] > 100 µM | [10] > 100 µM | [11] > 100 µM | [12] > 100 µM | [14] > 100 µM | [15] 79.1 µM

COCN1C(=O)[C@@H]2C[C@@H](OC/C=C/CBr)CN2C(=O)c2ccccc21
inactive: [1] 18.9 µM | [2] 14.4 µM | [3] 17.1 µM | [4] 23.2 µM | [5] 9.38 µM | [16] 26.5 µM | [6] 5.77 µM | [17] 26.1 µM | [7] 13.9 µM | [8] 14.5 µM | [9] 9.23 µM | [10] 22.3 µM | [11] 19.3 µM | [12] 15.6 µM | [14] 20.2 µM | [15] 17.7 µM

C=C1N(C=O)C(C)(C)N(O)C1(C)C
inactive: [1] > 100 µM | [2] > 100 µM | [3] > 100 µM | [4] > 100 µM | [5] > 100 µM | [16] > 100 µM | [7] > 100 µM | [8] > 100 µM | [9] > 100 µM | [10] > 100 µM | [11] > 100 µM | [12] > 100 µM | [18] > 100 µM | [13] > 100 µM | [14] > 100 µM | [15] 29.1 µM

Cc1ccc(Nc2nc(C)c(C(=O)CC(=O)C(=O)Nc3c(C)cccc3C(C)(C)C)s2)cc1
inactive: [1] > 100 µM | [2] > 100 µM | [3] > 100 µM | [4] > 100 µM | [5] > 100 µM | [16] 56 µM | [6] > 100 µM | [17] > 100 µM | [7] > 100 µM | [8] 71.8 µM | [9] > 100 µM | [10] > 100 µM | [11] > 100 µM | [18] > 100 µM | [13] > 100 µM | [14] > 100 µM | [15] > 100 µM

CC1(C)OCC(COC(=O)NCn2cc(-c3ccccc3)nn2)O1 (stereo unspecified)
inactive: [2] > 100 µM | [3] > 100 µM | [4] > 100 µM | [5] > 100 µM | [6] > 100 µM | [7] > 100 µM | [19] > 100 µM | [8] > 100 µM | [9] > 100 µM | [10] > 100 µM | [11] > 100 µM | [12] > 100 µM | [18] > 100 µM | [13] 26.2 µM | [14] > 100 µM | [15] > 100 µM

O=C(c1cccs1)N(C(=S)OCCOc1ccccc1)c1ccccc1
inactive: [3] 28.1 µM | [4] 20.7 µM | [16] 58.6 µM | [6] 27.6 µM | [17] 25.5 µM | [7] 25.5 µM | [8] 21.4 µM | [9] 25.4 µM | [10] 26.5 µM | [11] 41 µM | [12] 31.3 µM | [18] 34.8 µM | [13] 24.7 µM | [14] 34 µM | [15] 27.4 µM
